# Measurements: US11021481B2, “Substituted isoindolin-1-ones and 2,3-dihydro-1h-pyrrolo[3,4-c]pyridin-1-ones as HPK1 antagonists” (Nimbus Saturn, Inc., priority 2019, dated 2021)
# Molecular target: HPK1 (Homo sapiens (Human), UniProt Q92918)
# Experiment: HPK1 biochemical enzyme assay (microfluidic mobility shift assay)
# Conditions: 1.5 nM HPK1, ATP 1 mM final, 30 min preincubation, 60 min at RT, Caliper EZ Reader; read-out: HPK1 1000UMATP caliper IC50
# Procedure, shortened: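 Ten-point compound titrations (top 3 μM final) preincubated 30 min with HPK1 and substrate, then reaction started with 1 mM ATP and 1 μM substrate, 5 mM MgCl2. After 60 min at RT, reaction terminated and product measured by microfluidic mobility shift.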
# Chain of HPK1 (Q92918 whole entry): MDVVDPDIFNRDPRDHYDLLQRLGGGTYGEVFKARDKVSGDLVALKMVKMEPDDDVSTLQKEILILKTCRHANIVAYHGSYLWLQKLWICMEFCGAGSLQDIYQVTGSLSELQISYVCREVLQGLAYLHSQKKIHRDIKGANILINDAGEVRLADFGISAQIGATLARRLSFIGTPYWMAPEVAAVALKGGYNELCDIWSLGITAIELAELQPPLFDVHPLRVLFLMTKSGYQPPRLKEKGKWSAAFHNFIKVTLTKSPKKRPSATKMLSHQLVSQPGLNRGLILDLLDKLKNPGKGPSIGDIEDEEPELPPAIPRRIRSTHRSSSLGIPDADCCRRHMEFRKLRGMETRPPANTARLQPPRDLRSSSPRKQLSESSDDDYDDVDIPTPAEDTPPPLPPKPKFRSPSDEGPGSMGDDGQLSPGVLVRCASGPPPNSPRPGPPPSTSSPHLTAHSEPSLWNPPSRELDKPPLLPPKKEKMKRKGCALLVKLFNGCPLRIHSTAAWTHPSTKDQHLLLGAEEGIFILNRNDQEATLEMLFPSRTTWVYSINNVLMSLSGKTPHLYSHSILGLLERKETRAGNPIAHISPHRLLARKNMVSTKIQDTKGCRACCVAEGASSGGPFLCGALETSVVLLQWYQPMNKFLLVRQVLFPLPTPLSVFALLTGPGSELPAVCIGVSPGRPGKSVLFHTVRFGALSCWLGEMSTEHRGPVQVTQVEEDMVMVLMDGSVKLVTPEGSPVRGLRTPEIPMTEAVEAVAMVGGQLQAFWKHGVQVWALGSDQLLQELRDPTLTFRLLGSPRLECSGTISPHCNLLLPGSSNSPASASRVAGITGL
row,Compound,IC50 [nM]
1,"CN1CCN(c2ccc(Nc3cnc(-c4c[nH]c5cc(F)ccc45)c4c3C(=O)NC4)nc2)CC1 [I-53, 4-(6-fluoro-1H-indol-3-yl)-7-[[5-(4-methylpiperazin-1-yl)-2-pyridyl]amino]-2,3-dihydropyrrolo [3,4-c]pyridin-1-one]",100 to 1000
2,"CN1CCN(c2ccc(Nc3ccc(-c4ccnc5c4cnn5C)c4c3C(=O)NC4)nc2)CC1 [I-61, 7-[[5-(4-methylpiperazn-1-yl)-2-pyridyl]amino]-4-(1-methylpyrazolo [3,4-b]pyridin-4-yl)isoindolin-1-one]",100 to 1000
3,"CN1CCN(c2ccc(Nc3ccc(-c4ccnc5ccn(C)c45)c4c3C(=O)NC4)nc2)CC1 [I-66, 7-[[5-(4-methylpiperazin-1-yl)-2-pyridyl]amino]-4-(1-methylpyrrolo [3,2-b]pyridin-7-yl)isoindolin-1-one]",100 to 1000
4,"CN1CCN(c2ccc(Nc3ccc(-c4c(F)cnc5c4ccn5C)c4c3C(=O)NC4)nc2)CC1 [I-67, 4-(5-fluoro-1-methyl-pyrrolo[2,3-b]pyridin-4-yl)-7-[[5-(4-methylpiperazin-1-yl)-2-pyridyl]amino] isoindolin-1-one]",< 100
5,"CN1CCN(c2ccc(Nc3ccc(-c4ccnc5c4CCN5)c4c3C(=O)NC4)nc2)CC1 [I-68, 4-(2,3-dihydro-1H-pyrrolo[2,3-b]pyridin-4-yl)-7-[[5-(4-methylpiperazin-1-yl)-2-pyridyl]amino] isoindolin-1-one]",< 100
6,"Cc1cccc2c(-c3ccc(Nc4ccc(N5CCN(C)CC5)cn4)c4c3CNC4=O)cnn12 [I-69, 7-[[5-(4-methylpiperazin-1-yl)-2-pyridyl]amino]-4-(7-methylpyrazolo [1,5-a]pyridin-3-yl)isoindolin-1-one]",< 100
7,"Cn1ccc2c(-c3ccc(Nc4ccc(N5CC6CCC(C5)N6)cn4)c4c3CNC4=O)ccnc21 [I-70, 7-[[5-(3,8-diazabicyc1o [3,2.1]octan-3-yl)-2-pyridyl]amino]-4-(1-methylpyrrolo [2,3-b]pyridin-4-yl)isoindolin-1-one]",< 100
8,"CNC1CCN(c2ccc(Nc3ccc(-c4cnc5cc(C)ccn45)c4c3C(=O)NC4)nc2)CC1 [I-71, 7-[[5-[4-(methylamino)-1-piperidyl]-2-pyridyl]amino]-4-(7-methylimidazo [1,2-a]pyridin-3-yl)isoindolin-1-one]",< 100
9,"Cc1ccn2c(-c3ccc(Nc4ccc(N5CCNCC5)cn4)c4c3CNC4=O)cnc2c1 [I-72, 4-(7-methylimidazo [1,2-a]pyridin-3-yl)-7-[(5-piperazin-1-yl-2-pyridyl)amino] isoindolin-1-one]",< 100
10,"Cc1ccn2c(-c3ncc(Nc4ccc(N5CCN(C)CC5)cn4)c4c3CNC4=O)cnc2c1 [I-73, 4-(7-methylimidazo [1,2-a]pyridin-3-yl)-7-[[5-(4-methylpiperazin-1-yl)-2-pyridyl]-amino]-2,3-dihydropyrrolo [3,4-c]pyridin-1-]",< 100
11,"CN1CCN(c2ccc(Nc3ccc(-c4cnc5c(C#N)cccn45)c4c3C(=O)NC4)nc2)CC1 [I-74, 3-[7-[[5-(4-methylpiperazin-1-yl)-2-pyridyl]amino]-1-oxo-isoindolin-4-yl]imidazo[1,2-a]pyridine-8-carbonitrile]",< 100
12,"Cn1ccc2c(-c3ccc(Nc4ccc(N5CCC(O)CC5)cn4)c4c3CNC4=O)ccnc21 [I-75, 7-[[5-(4-hydroxy-1-piperidyl)-2-pyridyl]amino]-4-(1-methylpyrrolo [2,3-b]pyridin-4-yl)isoindolin-1-one]",< 100
13,"CN1CCN(c2ccc(Nc3ccc(-c4cnc5cnccn45)c4c3C(=O)NC4)nc2)CC1 [I-76, 4-imidazo[1,2-a]pyrazin-3-yl-7-[[5-(4-methylpiperazin-1-yl)-2-pyridyl]amino] isoindolin-1-one]",< 100
14,"Cc1cc(-c2ccc(Nc3ccc(N4CCN(C)CC4)cn3)c3c2CNC3=O)c2cc[nH]c2n1 [I-77, 7-[[5-(4-methylpiperazin-1-yl)-2-pyridyl]amino]-4-(6-methyl-1H-pyrrolo[2,3-b]pyridin-4-yl)isoindolin-1-one]",100 to 1000
15,"Cc1cnc2[nH]ccc2c1-c1ccc(Nc2ccc(N3CCN(C)CC3)cn2)c2c1CNC2=O [I-78, 7-[[5-(4-methylpiperazin-1-yl)-2-pyridyl]amino]-4-(5-methyl-1H-pyrrolo[2,3-b]pyridin-4-yl)isoindolin-1-one]",100 to 1000
16,"Cn1ccc2c(-c3ccc(Nc4ccc(N5CCCNCC5)cn4)c4c3CNC4=O)ccnc21 [I-79, 7-[[5-(1,4-diazepan-1-yl)-2-pyridyl]amino]-4-(1-methylpyrrolo [2,3-b]pyridin-4-yl)isoindolin-1-one]",< 100

# The next lines start with the values.
row,IC50 [nM],Compound
1,< 100,"Cc1cc2c(-c3ncc(Nc4ccc(N5CCN(C)CC5)cn4)c4c3CNC4=O)ccnc2[nH]1 [I-55, 7-[[5-(4-methylpiperazin-1-yl)-2-pyridyl]amino]-4-(2-methyl-1H-pyrrolo[2,3-b]pyridin-4-yl)-2,3-dihydropyrrolo [3,4-c]pyridin-1-one]"
2,< 100,"CN1CCN(c2ccc(Nc3cnc(-c4cnc5ccccn45)c4c3C(=O)NC4)nc2)CC1 [I-56, 4-(Imidazo[1,2-a]pyridin-3-yl)-7-((5-(4-methylpiperazin-1-yl)pyridin-2-yl)amino)-2,3-dihydro-1H-pyrrolo[3,4-c]pyridin-1-one]"
3,< 100,"CNC1CCN(c2ccc(Nc3ccc(-c4ccnc5[nH]ccc45)c4c3C(=O)NC4)nc2)CC1 [I-57, 7-[[5-[4-(methylamino)-1-piperidyl]-2-pyridyl]amino]-4-(1H-pyrrolo[2,3-b]pyridin-4-yl)isoindolin-1-one]"
4,< 100,"CNC1CCN(c2ccc(Nc3ccc(-c4cnc5ccccn45)c4c3C(=O)NC4)nc2)CC1 [I-58, 4-imidazo[1,2-a]pyridin-3-yl-7-[[5-[4-(methylamino)-1-piperidyl]-2-pyridyl]amino] isoindolin-1-one]"
5,< 100,"CN1CCN(c2ccc(Nc3ccc(-c4cnc5cccnn45)c4c3C(=O)NC4)nc2)CC1 [I-59, 4-imidazo[1,2-b]pyridazin-3-yl-7-[[5-(4-methylpiperazin-1-yl)-2-pyridyl]amino] isoindolin-1-one]"
6,< 100,"O=C1NCc2c(-c3cnc4ccccn34)ccc(Nc3ccc(N4CCNCC4)cn3)c21 [I-60, 4-imidazo[1,2-a]pyridin-3-yl-7-[(5-piperazin-1-yl-2-pyridyl)amino] isoindolin-1-one]"
7,< 100,"CNC1CCN(c2ccc(Nc3ccc(-c4ccnc5c4ccn5C)c4c3C(=O)NC4)nc2)CC1 [I-62, 7-[[5-[4-(methylamino)-1-piperidyl]-2-pyridyl]amino]-4-(1-methylpyrrolo [2,3-b]pyridin-4-yl)isoindolin-1-one]"
8,< 100,"O=C1NCc2c(-c3cnc4ccccn34)ncc(Nc3ccc(N4CCNCC4)cn3)c21 [I-63, 4-imidazo[1,2-a]pyridin-3-yl-7-[(5-piperazin-1-yl-2-pyridyl)amino]-2,3-dihydropyrrolo [3,4-c]pyridin-1-one]"
9,< 100,"Cc1ccn2c(-c3ccc(Nc4ccc(N5CCN(C)CC5)cn4)c4c3CNC4=O)cnc2c1 [I-64, 4-(7-methylimidazo [1,2-a]pyridin-3-yl)-7-[[5-(4-methylpiperazin-1-yl)-2-pyridyl]amino] isoindolin-1-one]"
10,< 100,"Cc1ccc2c(-c3ccc(Nc4ccc(N5CCN(C)CC5)cn4)c4c3CNC4=O)cnn2c1 [I-65, 7-[[5-(4-methylpiperazin-1-yl)-2-pyridyl]amino]-4-(6-methylpyrazolo [1,5-a]pyridin-3-yl)isoindolin-1-one]"
